Measured values from ChEMBL document CHEMBL5608200, “Design, synthesis, and evaluation of antitumor activity of 2-arylmethoxy-4-(2-fluoromethyl-biphenyl-3-ylmethoxy) benzylamine derivatives as PD-1/PD-l1 inhibitors” (Eur J Med Chem, 2024).
Active and inactive are the calls of the source. No cut-off for these calls is given here.

Tests used:
[1] = Cytotoxicity against human PBMCs at 1 to 4 uM by CCK-8 assay; assay type: toxicity, cell-based; conditions: pbmc, dose 1-4 µM
MC-38 [2] = assay: Antiproliferative activity against mouse MC38 cells expressing hPD-L1 incubated for 48 hrs by CCK8 assay; conditions: MC-38, 48 h
HCC827 [3] = assay: Induction of T-cell mediated apoptosis in human HCC827 cells cocultured with PMA-stimulated Jurkat T cells assessed as mortality rate at 4 uM incubated for 48 hrs by CCK-8 assay; assay type: functional
HCC827 [4] = assay: Induction of T-cell mediated apoptosis in human HCC827 cells cocultured with PMA-stimulated Jurkat T cells assessed as mortality rate at 16 uM incubated for 48 hrs by CCK-8 assay; assay type: functional
HCC827 [5] = assay: Induction of T-cell mediated apoptosis in human HCC827 cells cocultured with PMA-stimulated Jurkat T cells assessed as mortality rate at 32 uM incubated for 48 hrs by CCK-8 assay; assay type: functional
MDA-MB-231 [6] = assay: Induction of T-cell mediated apoptosis in human MDA-MB-231 cells cocultured with PMA-stimulated Jurkat T cells assessed as mortality rate at 4 uM incubated for 48 hrs by CCK-8 assay; assay type: functional
MDA-MB-231 [7] = assay: Induction of T-cell mediated apoptosis in human MDA-MB-231 cells cocultured with PMA-stimulated Jurkat T cells assessed as mortality rate at 8 uM incubated for 48 hrs by CCK-8 assay; assay type: functional
MDA-MB-231 [8] = assay: Induction of T-cell mediated apoptosis in human MDA-MB-231 cells cocultured with PMA-stimulated Jurkat T cells assessed as mortality rate at 16 uM incubated for 48 hrs by CCK-8 assay; assay type: functional
A549 [9] = assay: Induction of T-cell mediated apoptosis in human A549 cells cocultured with PMA-stimulated Jurkat T cells assessed as mortality rate at 1 to 32 uM incubated for 48 hrs by CCK-8 assay; assay type: functional, cell-based; conditions: dose 1-32 µM
MDA-MB-231 [10] = assay: Cytotoxicity against human MDA-MB-231 cells at 1 to 32 uM incubated for 48 hrs by CCK-8 assay; assay type: functional, cell-based; conditions: dose 1-32 µM
A549 [11] = assay: Cytotoxicity against human A549 cells at 1 to 32 uM incubated for 48 hrs by CCK-8 assay; assay type: functional, cell-based; conditions: dose 1-32 µM
Jurkat = assay: Cytotoxicity against human Jurkat T cells at 1 to 32 uM incubated for 48 hrs by CCK-8 assay; assay type: functional, cell-based; conditions: dose 1-32 µM
[12] = AUC(0 to t) in Sprague-Dawley rat at 10 mg/kg, iv measured upto 48 hrs by LC-MS/MS analysis; assay type: ADME, organism-based; conditions: in vivo
[13] = AUC(0 to infinity) in Sprague-Dawley rat at 10 mg/kg, iv measured upto 48 hrs by LC-MS/MS analysis; assay type: ADME, organism-based; conditions: in vivo
[14] = Half-life in Sprague-Dawley rat at 10 mg/kg, iv measured upto 48 hrs by LC-MS/MS analysis; assay type: ADME, organism-based; conditions: in vivo
[15] = Apparent volume of distribution in Sprague-Dawley rat at 10 mg/kg, iv measured upto 48 hrs by LC-MS/MS analysis; assay type: ADME, organism-based; conditions: in vivo
[16] = AUC(0 to infinity) in Sprague-Dawley rat at 50 mg/kg, IG measured upto 48 hrs by LC-MS/MS analysis; assay type: ADME, organism-based; conditions: in vivo, po
[17] = Tmax in Sprague-Dawley rat at 50 mg/kg, IG measured upto 48 hrs by LC-MS/MS analysis; assay type: ADME, organism-based; conditions: in vivo, po
[18] = Half-life in Sprague-Dawley rat at 50 mg/kg, IG measured upto 48 hrs by LC-MS/MS analysis; assay type: ADME, organism-based; conditions: in vivo, po
[19] = Apparent volume of distribution in Sprague-Dawley rat at 50 mg/kg, IG measured upto 48 hrs by LC-MS/MS analysis; assay type: ADME, organism-based; conditions: in vivo, po
[20] = Toxicity in PD-1/PD-L1 humanized C57BL/6 mouse implanted with mouse MC38 cells expressing hPD-L1 assessed as weight loss at 50 mg/kg, IG QD administered for 15 days; assay type: organism-based, MC-38; conditions: in vivo, po, 360 h, time 15 day
MC-38 [21] = assay: Antitumor activity against mouse MC38 cells expressing hPD-L1 implanted in PD-1/PD-L1 humanized C57BL/6 mouse assessed as increase in proportion of CD3+/CD8+ T cells at 50 mg/kg, IG QD administered for 15 days by flow cytometry analysis; assay type: functional, organism-based; conditions: time 15.0 day
MC-38 [22] = assay: Antitumor activity against mouse MC38 cells expressing hPD-L1 implanted in PD-1/PD-L1 humanized C57BL/6 mouse assessed as increase in ratio of CD3+/CD8+ to CD3+/CD4+ cells at 50 mg/kg, IG QD administered for 15 days by flow cytometry analysis; assay type: functional, organism-based; conditions: time 15.0 day
MC-38 [23] = assay: Antitumor activity against mouse MC38 cells expressing hPD-L1 implanted in PD-1/PD-L1 humanized C57BL/6 mouse assessed as upregulation of CXCR3 mRNA expression at 50 mg/kg, IG QD administered for 15 days by RT-PCR analysis; assay type: functional, organism-based; conditions: time 15.0 day
MC-38 [24] = assay: Antitumor activity against mouse MC38 cells expressing hPD-L1 implanted in PD-1/PD-L1 humanized C57BL/6 mouse assessed as upregulation of CXCL9 mRNA expression at 50 mg/kg, IG QD administered for 15 days by RT-PCR analysis; assay type: functional, organism-based; conditions: time 15.0 day
MC-38 [25] = assay: Antitumor activity against mouse MC38 cells expressing hPD-L1 implanted in PD-1/PD-L1 humanized C57BL/6 mouse assessed as upregulation of CXCL10 mRNA expression at 50 mg/kg, IG QD administered for 15 days by RT-PCR analysis; assay type: functional, organism-based; conditions: time 15.0 day
MC-38 [26] = assay: Antitumor activity against mouse MC38 cells expressing hPD-L1 implanted in PD-1/PD-L1 humanized C57BL/6 mouse assessed as downregulation of PD-L1 mRNA expression at 50 mg/kg, IG QD administered for 15 days by RT-PCR analysis; assay type: functional, organism-based; conditions: time 15.0 day
[27] = Toxicity in PD-1/PD-L1 humanized C57BL/6 mouse implanted with mouse MC38 cells expressing hPD-L1 assessed as change in heart morphology at 50 mg/kg, IG QD administered for 15 days by H and E staining based inverted fluorescent microscopic assay; assay type: organism-based, MC-38; conditions: in vivo, po, 360 h, time 15 day
[28] = Toxicity in PD-1/PD-L1 humanized C57BL/6 mouse implanted with mouse MC38 cells expressing hPD-L1 assessed as change in liver morphology at 50 mg/kg, IG QD administered for 15 days by H and E staining based inverted fluorescent microscopic assay; assay type: organism-based, MC-38; conditions: in vivo, po, 360 h, time 15 day
[29] = Toxicity in PD-1/PD-L1 humanized C57BL/6 mouse implanted with mouse MC38 cells expressing hPD-L1 assessed as change in spleen morphology at 50 mg/kg, IG QD administered for 15 days by H and E staining based inverted fluorescent microscopic assay; assay type: organism-based, MC-38; conditions: in vivo, po, 360 h, time 15 day
[30] = Toxicity in PD-1/PD-L1 humanized C57BL/6 mouse implanted with mouse MC38 cells expressing hPD-L1 assessed as change in lung morphology at 50 mg/kg, IG QD administered for 15 days by H and E staining based inverted fluorescent microscopic assay; assay type: organism-based, MC-38; conditions: in vivo, po, 360 h, time 15 day
[31] = Toxicity in PD-1/PD-L1 humanized C57BL/6 mouse implanted with mouse MC38 cells expressing hPD-L1 assessed as change in kidney morphology at 50 mg/kg, IG QD administered for 15 days by H and E staining based inverted fluorescent microscopic assay; assay type: organism-based, MC-38; conditions: in vivo, po, 360 h, time 15 day
[32] = Toxicity in PD-1/PD-L1 humanized C57BL/6 mouse implanted with mouse MC38 cells expressing hPD-L1 assessed as hepatotoxicity at 50 mg/kg, IG QD administered for 15 days; assay type: organism-based, MC-38; conditions: in vivo, po, 360 h, time 15 day

## N#Cc1cncc(COc2cc(OCc3cccc(-c4ccc5c(c4)OCCO5)c3C(F)F)ccc2CNCCO)c1
[1]
  Activity: Non-Toxic
MC-38 [2]
  IC50: > 8 µM
HCC827 [3]
  Activity: 40.4%
HCC827 [4]
  Activity: 59.6%
HCC827 [5]
  Activity: 71.2%
MDA-MB-231 [6]
  Activity: 40.6%
MDA-MB-231 [7]
  Activity: 45.9%
MDA-MB-231 [8]
  Activity: 57.1%
A549 [9]
  Activity: inactive
MDA-MB-231 [10]
  Activity: inactive
A549 [11]
  Activity: inactive
Jurkat
  Activity: inactive
[12]
  AUC(0-t) at 48 h: 12800 ng·h/mL
[13]
  AUC(0-inf): 13900 ng·h/mL
[14]
  t1/2: 2.47 h
[15]
  Vz: 10.1 L/kg
[16]
  AUC(0-inf): 42000 ng·h/mL
[17]
  Tmax: 2.38 h
[18]
  t1/2: 5.52 h
[19]
  Vz: 31.76 L/kg
[20]
  Activity: Non-Toxic
MC-38 [21]
  Activity: Active
MC-38 [22]
  Activity: Active
MC-38 [23]
  Activity: Active
MC-38 [24]
  Activity: Active
MC-38 [25]
  Activity: Active
MC-38 [26]
  Activity: Active
[27]
  Activity: Non-Toxic
[28]
  Activity: Non-Toxic
[29]
  Activity: Non-Toxic
[30]
  Activity: Non-Toxic
[31]
  Activity: Non-Toxic
[32]
  Activity: Non-Toxic
